Source: ChEMBL document CHEMBL1156586, “Structure-activity relationship studies of permeability modulating peptide AT-1002” (Bioorg Med Chem Lett, 2008)
*1 amine or outer side, *2 acyl side, *3 side chain or, on linkers, in order; H or OH if unused. Where a SMILES comes first, the peptide text is derived from it. Bridges are numbered along the chain shown (N, C = ends). Roman numbers before positions name the chains, in order. [ ]: non-standard residue; d: D form. X1 = O=C([C@H](/C=C/c1ccccc1)N[*:1])[*:2]; Leu(4,5-dehydro) = C=C(C)C[C@H](N)C(=O)O; Phe(4-CN) = N#Cc1ccc(C[C@H](N)C(=O)O)cc1; Phe(3-Me) = Cc1cccc(C[C@H](N)C(=O)O)c1; Met(O2) = CS(=O)(=O)CC[C@H](N)C(=O)O; Ala(cPr) = N[C@@H](CC1CC1)C(=O)O; 2Pal = N[C@@H](Cc1ccccn1)C(=O)O; Met(O) = CS(=O)CC[C@H](N)C(=O)O; 2Thi = N[C@@H](Cc1cccs1)C(=O)O; Cha = N[C@@H](CC1CCCCC1)C(=O)O; Tle = CC(C)(C)[C@H](N)C(=O)O; Dab = NCC[C@H](N)C(=O)O; Nva = CCC[C@H](N)C(=O)O; Abu = CC[C@H](N)C(=O)O

Tests used:
[1] = test system: Caco-2; assay: Permeability from apical to basolateral side of human Caco-2 cell monolayers assessed as increase in lucifer yellow flux at 7.0 mM relative to untreated control; type: ADME, cell-based; details: caco-2, 7000 µM
[2] = test system: Caco-2; assay: Effect on integrity in human Caco-2 cell monolayers assessed as transepithelial resistance by epithelial voltohmmeter relative to control; type: ADME, cell-based; set-up: concentration or dose not given beside the values

Compound | fold change (FC) [1] | Activity [2]
C=CC[C@@H](NC(=O)[C@@H](N)Cc1ccccc1)C(=O)N[C@H](C(=O)NCC(=O)N[C@@H](CCCNC(=N)N)C(=O)N[C@@H](CC(C)C)C(=O)O)[C@@H](C)CC | 0.8 | 130%
C=CC[C@H](NC(=O)[C@@H](N)Cc1ccccc1)C(=O)N[C@H](C(=O)NCC(=O)N[C@@H](CCCNC(=N)N)C(=O)N[C@@H](CC(C)C)C(=O)O)[C@@H](C)CC | 103 | 20%
CC[C@H](C)[C@H](NC(=O)[C@H](CS)NC(=O)[C@@H](N)Cc1ccccc1)C(=O)NCC(=O)O (H-FCIG-OH) | 2.2 | 103%
CC[C@H](C)[C@H](NC(=O)[C@H](CS)NC(=O)[C@@H](N)Cc1ccccc1)C(=O)NCC(=O)N[C@@H](CCCNC(=N)N)C(=O)O (H-FCIGR-OH) | 31 | 21%
CC[C@H](C)[C@H](NC(=O)[C@H](CS)NC(=O)[C@@H](N)Cc1ccccc1)C(=O)NCC(=O)N[C@@H](CCCNC(=N)N)C(=O)N[C@@H](CC(C)C)C(=O)O (H-FCIGRL-OH) | 52 | 11%
CC[C@H](C)[C@H](NC(=O)[C@H](CC(=O)O)NC(=O)[C@@H](N)Cc1ccccc1)C(=O)NCC(=O)N[C@@H](CCCNC(=N)N)C(=O)N[C@@H](CC(C)C)C(=O)O (H-FDIGRL-OH) | 0.7 | 148%
CC[C@H](C)[C@H](NC(=O)[C@H](CCC(=O)O)NC(=O)[C@@H](N)Cc1ccccc1)C(=O)NCC(=O)N[C@@H](CCCNC(=N)N)C(=O)N[C@@H](CC(C)C)C(=O)O (H-FEIGRL-OH) | 1.3 | 104%
CC[C@H](C)[C@H](NC(=O)[C@H](Cc1cnc[nH]1)NC(=O)[C@@H](N)Cc1ccccc1)C(=O)NCC(=O)N[C@@H](CCCNC(=N)N)C(=O)N[C@@H](CC(C)C)C(=O)O (H-FHIGRL-OH) | 1 | 102%
CC[C@H](C)[C@H](NC(=O)[C@H](CCCCN)NC(=O)[C@@H](N)Cc1ccccc1)C(=O)NCC(=O)N[C@@H](CCCNC(=N)N)C(=O)N[C@@H](CC(C)C)C(=O)O (H-FKIGRL-OH) | 0.4 | 110%
CC[C@H](C)[C@H](NC(=O)[C@H](CC(C)C)NC(=O)[C@@H](N)Cc1ccccc1)C(=O)NCC(=O)N[C@@H](CCCNC(=N)N)C(=O)N[C@@H](CC(C)C)C(=O)O (H-FLIGRL-OH) | 1 | 121%
CC[C@H](C)[C@H](NC(=O)[C@H](CC(N)=O)NC(=O)[C@@H](N)Cc1ccccc1)C(=O)NCC(=O)N[C@@H](CCCNC(=N)N)C(=O)N[C@@H](CC(C)C)C(=O)O (H-FNIGRL-OH) | 1.5 | 83%
CC[C@H](C)[C@H](NC(=O)[C@H](CCC(N)=O)NC(=O)[C@@H](N)Cc1ccccc1)C(=O)NCC(=O)N[C@@H](CCCNC(=N)N)C(=O)N[C@@H](CC(C)C)C(=O)O (H-FQIGRL-OH) | 1.5 | 112%
CC[C@H](C)[C@H](NC(=O)[C@H](CCCNC(=N)N)NC(=O)[C@@H](N)Cc1ccccc1)C(=O)NCC(=O)N[C@@H](CCCNC(=N)N)C(=O)N[C@@H](CC(C)C)C(=O)O (H-FRIGRL-OH) | 2.2 | 102%
CC[C@H](C)[C@H](NC(=O)[C@H](CO)NC(=O)[C@@H](N)Cc1ccccc1)C(=O)NCC(=O)N[C@@H](CCCNC(=N)N)C(=O)N[C@@H](CC(C)C)C(=O)O (H-FSIGRL-OH) | 2.1 | 94%
CC[C@H](C)[C@H](NC(=O)[C@@H](NC(=O)[C@@H](N)Cc1ccccc1)[C@@H](C)O)C(=O)NCC(=O)N[C@@H](CCCNC(=N)N)C(=O)N[C@@H](CC(C)C)C(=O)O (H-FTIGRL-OH) | 3.9 | 66%
CC[C@H](C)[C@H](NC(=O)[C@@H](NC(=O)[C@@H](N)Cc1ccccc1)C(C)C)C(=O)NCC(=O)N[C@@H](CCCNC(=N)N)C(=O)N[C@@H](CC(C)C)C(=O)O (H-FVIGRL-OH) | 5.7 | 50%
CC[C@H](C)[C@H](NC(=O)[C@H](Cc1ccc(O)cc1)NC(=O)[C@@H](N)Cc1ccccc1)C(=O)NCC(=O)N[C@@H](CCCNC(=N)N)C(=O)N[C@@H](CC(C)C)C(=O)O (H-FYIGRL-OH) | 0.6 | 118%

Compound | fold change (FC) [1] | Activity [2]
CC[C@H](C)[C@H](NC(=O)[C@H](Cc1ccccn1)NC(=O)[C@@H](N)Cc1ccccc1)C(=O)NCC(=O)N[C@@H](CCCNC(=N)N)C(=O)N[C@@H](CC(C)C)C(=O)O (H-F[2Pal]IGRL-OH) | 0.5 | 148%
CC[C@H](C)[C@H](NC(=O)[C@H](Cc1cccs1)NC(=O)[C@@H](N)Cc1ccccc1)C(=O)NCC(=O)N[C@@H](CCCNC(=N)N)C(=O)N[C@@H](CC(C)C)C(=O)O (H-F[2Thi]IGRL-OH) | 1.4 | 119%
CC[C@H](NC(=O)[C@@H](N)Cc1ccccc1)C(=O)N[C@H](C(=O)NCC(=O)N[C@@H](CCCNC(=N)N)C(=O)N[C@@H](CC(C)C)C(=O)O)[C@@H](C)CC (H-F[Abu]IGRL-OH) | 1.1 | 96%
CC[C@H](C)[C@H](NC(=O)[C@H](CC1CC1)NC(=O)[C@@H](N)Cc1ccccc1)C(=O)NCC(=O)N[C@@H](CCCNC(=N)N)C(=O)N[C@@H](CC(C)C)C(=O)O (H-F[Ala(cPr)]IGRL-OH) | 0.6 | 111%
CC[C@H](C)[C@H](NC(=O)[C@H](CC1CCCCC1)NC(=O)[C@@H](N)Cc1ccccc1)C(=O)NCC(=O)N[C@@H](CCCNC(=N)N)C(=O)N[C@@H](CC(C)C)C(=O)O (H-F[Cha]IGRL-OH) | 2.1 | 68%
CC[C@H](C)[C@H](NC(=O)[C@H](CCN)NC(=O)[C@@H](N)Cc1ccccc1)C(=O)NCC(=O)N[C@@H](CCCNC(=N)N)C(=O)N[C@@H](CC(C)C)C(=O)O (H-F[Dab]IGRL-OH) | 2.1 | 94%
C=C(C)C[C@H](NC(=O)[C@@H](N)Cc1ccccc1)C(=O)N[C@H](C(=O)NCC(=O)N[C@@H](CCCNC(=N)N)C(=O)N[C@@H](CC(C)C)C(=O)O)[C@@H](C)CC (H-F[Leu(4,5-dehydro)]IGRL-OH) | 1.9 | 115%
CC[C@H](C)[C@H](NC(=O)[C@H](CCS(C)(=O)=O)NC(=O)[C@@H](N)Cc1ccccc1)C(=O)NCC(=O)N[C@@H](CCCNC(=N)N)C(=O)N[C@@H](CC(C)C)C(=O)O (H-F[Met(O2)]IGRL-OH) | 0.7 | 110%
CC[C@H](C)[C@H](NC(=O)[C@H](CC[S+](C)[O-])NC(=O)[C@@H](N)Cc1ccccc1)C(=O)NCC(=O)N[C@@H](CCCNC(=N)N)C(=O)N[C@@H](CC(C)C)C(=O)O (stereo partly specified) (H-F[Met(O)]IGRL-OH) | 1.1 | 106%
CCC[C@H](NC(=O)[C@@H](N)Cc1ccccc1)C(=O)N[C@H](C(=O)NCC(=O)N[C@@H](CCCNC(=N)N)C(=O)N[C@@H](CC(C)C)C(=O)O)[C@@H](C)CC (H-F[Nva]IGRL-OH) | 1.6 | 98%
CC[C@H](C)[C@H](NC(=O)[C@H](Cc1cccc(C)c1)NC(=O)[C@@H](N)Cc1ccccc1)C(=O)NCC(=O)N[C@@H](CCCNC(=N)N)C(=O)N[C@@H](CC(C)C)C(=O)O (H-F[Phe(3-Me)]IGRL-OH) | 0.6 | 101%
CC[C@H](C)[C@H](NC(=O)[C@H](Cc1ccc(C#N)cc1)NC(=O)[C@@H](N)Cc1ccccc1)C(=O)NCC(=O)N[C@@H](CCCNC(=N)N)C(=O)N[C@@H](CC(C)C)C(=O)O (H-F[Phe(4-CN)]IGRL-OH) | 0.3 | 118%
CC[C@H](C)[C@H](NC(=O)[C@@H](NC(=O)[C@@H](N)Cc1ccccc1)C(C)(C)C)C(=O)NCC(=O)N[C@@H](CCCNC(=N)N)C(=O)N[C@@H](CC(C)C)C(=O)O (H-F[Tle]IGRL-OH) | 6.7 | 35%
CC[C@H](C)[C@H](NC(=O)[C@H](/C=C/c1ccccc1)NC(=O)[C@@H](N)Cc1ccccc1)C(=O)NCC(=O)N[C@@H](CCCNC(=N)N)C(=O)N[C@@H](CC(C)C)C(=O)O (H-F[X1]IGRL-OH) | 1 | 113%
CC[C@H](C)[C@H](N)C(=O)NCC(=O)N[C@@H](CCCNC(=N)N)C(=O)N[C@@H](CC(C)C)C(=O)O (H-IGRL-OH) | 0.9 | 70%
CC[C@H](C)[C@H](NC(=O)[C@H](CSSC[C@H](NC(=O)[C@@H](N)Cc1ccccc1)C(=O)N[C@H](C(=O)NCC(=O)N[C@@H](CCCNC(=N)N)C(=O)N[C@@H](CC(C)C)C(=O)O)[C@@H](C)CC)NC(=O)[C@@H](N)Cc1ccccc1)C(=O)NCC(=O)N[C@@H](CCCNC(=N)N)C(=O)N[C@@H](CC(C)C)C(=O)O (I: H-FCIGRL-OH / II: H-FCIGRL-OH; disulfide I:2-II:2) | 0.7 | 137%
